# Measured values taken from patent US20230226135A9, “ACETYLCHOLINE MODULATION OF IMMUNE FUNCTION” (BCell Solutions, Inc., priority 2019, published 2023).
# “Also recorded” adds a separate entry of the source.
# How the values were obtained:
# splenic B cells = assay: CFA-sensitized mice treated with Peptide with or without MLA, FACS of splenic B cells; type: in vivo
# Experimental: SUMMARY: A study was conducted to evaluate a potential alpha7 nAChR anti-inflammatory mechanism of the MKR-4 peptide, using the alpha7 nAChR antagonist methyllycaconitine (MLA). After enrollment, animals in Groups 2-4 were sensitized ID at the base of the tail with 0.1 mL FCA on Day 1. On Days 2, 3, 5 & 7 Groups were then dosed intraperitoneally (IP) with either: peptide and MLA in combination (2 mg/kg and 6 mg/kg, respectively); peptide (2 mg/kg) and MLA vehicle (saline) in combination; or peptide vehicle (saline) and MLA vehicle (saline). Animals were dosed once on Study Day 2 (MLA or MLA vehicle), and Days 3, 5 & 7 (Peptide or Peptide vehicle, MLA or MLA vehicle) as described in Table 2 below. Body weights were recorded on Study Days 0 & 8. Mice were euthanized for necropsy on Study Day 8, and serum and whole spleens were collected from all animals and sent to the sponsor for internal FACS analysis. Toxicity and Peptide mechanistic evaluation was based on absolute body weight change, spleen weights and sponsor FACS analysis (not included in report).
# Antibodies and Flow Cytometry. Single cell suspensions were made of tissues or cells harvested from culture and stained with the following monoclonal antibodies: a monoclonal antibody directed against mouse alpha 7 nicotinic acetylcholine receptor (alpha 7 nAChR) (Santa Cruz Biotechnology); anti-mouse MHC Class II (M5114), and anti-mouse CLIP 15G4, Santa Cruz. Following staining, cells were analyzed comparing each level of staining to the appropriate isotype control on a Beckman Coulter Cytoflex benchtop flow cytometer. Data was analyzed using FlowJo software (Tree Star Inc.).
# Experimental Design: On Study Day 0, mice were weighed and randomized by body weight into treatment groups. Following randomization, on Study Day 1, Groups 2-4 were sensitized ID at the base of the tail with 0.1 mL of FCA. When MLA and Peptide (FRIMAVLAS (SEQ ID NO: 389))—or their vehicles—were dosed on the same day, the MLA antagonist or vehicle was dosed 1 hour before the Peptide or its vehicle.
# On Study Day 8, mice were anesthetized with Isoflurane (VetOne, Cat #502017) and bled to exsanguination followed by cervical dislocation for necropsy and tissue collection.
# [1] = Dosing formulation storage and stability; type: physicochemical; details: 5 mg/mL DMSO stock
# Experimental: Test Article Formulation Instructions & Calculations: Peptide dosing solution (0.2 mg/mL) was made fresh daily within 1 hour of use by diluting 0.09 mL of 5 mg/mL DMSO stock into 2.11 mL sterile saline. DMSO stock was kept at 4 C, then refrozen (to avoid repeated freeze-thaw cycles). Still, stock was relatively “solid” even at 4 C.
# MLA antagonist dosing solution (0.6 mg/mL) was made on Day 2 by diluting the entire 5 mg in the sealed vial with 8.3 mL of sterile saline and aliquoting out ˜1.1 mL in each of seven 2 mL cryovials and freezing at −20 C. Four vials were used in the experiment, each thawed within 1 hour of use. Three vials remain frozen.
# Dosing Formulations and Vehicle Storage & Stability: Saline vehicle is stable at 4 C for months. Peptide dosing solutions were made up and used fresh daily. […] MLA frozen “stock” solutions were stable for up to 1 month.
# CD8+ T cells = assay: CAP-induced expansion of CD8+ T cells with or without α7nAChR antagonist; type: in vivo; details: CAP treatment
# [2] = tested on: peripheral pro-inflammatory cells; assay: TBI (fluid percussion injury), peripheral pro-inflammatory cells; type: in vivo; details: TBI / FPI
# Excerpt: FIG. 17. CAP reduces peripheral pro-inflammatory cells. TBI is traumatic brain injury. FPI is fluid percussion injury.
sequence,measurement,setting,value
"FRIMAVLAS [CAP, α7nAChR agonist]",percentage of splenic B cells,"splenic B cells; CFA treated and Peptide treated (2 mg/kg IP), vehicle 49.8%, CFA 50.1%",34.4%
same,number of CLIP+ B cells,"splenic B cells; CFA treated mice, Peptide 2 mg/kg IP",reduction
same,stability of DMSO stock,[1],stable for a few months
same,expansion of CD8+ T cells,CD8+ T cells,induce the expansion; also recorded: induces expansion
same,peripheral pro-inflammatory cells,[2],reduces
